Measured values reported in patent US11208433B2, “Peptide for inhibiting skin inflammation and composition for preventing or treating skin inflammation containing the same” (AVIXGEN Inc., priority 2017, dated 2021).

Assays:
[1] = test system: atopic dermatitis animal model; experiment: Ear thickness measurement in atopic dermatitis animal model; format: in vivo, NC/Nga mouse; settings: FIG. 2; for ear thickness compared with induced control group (group 2): 7th and 14th day after administration, tetrapeptide 0.622, ACP-tetrapeptide 4.987, prednisolone 50 μg/ear once a day, p<0.001 or p<0.01
Description: (§1) After the ear auricle of the NC/Nga mouse was shaved with a razor, the epilating agent was applied in an appropriate amount for the complete depilation. After the epilating agent was wiped off, Then, 100 mg of the AD-inducing reagent shown in Table 2 as below was uniformly applied to the ear auricle using a micropipette tip, thereby inducing atopic dermatitis for the first time. After shaving with a razor for necessary, 150 μL of a 4% SDS aqueous solution was uniformly applied to the ear auricle using a micropipette, dried with a cold air using a dryer, and air-dried for about 2 to 3 hours. Then, 100 mg of the same AD-inducing reagent was uniformly applied to the ear auricle using a micropipette tip, thereby inducing atopic dermatitis after 2 times. All treatments were carried out twice a week to be 6 times for a total of 3 weeks, thereby producing atopic dermatitis animal model. The mice of groups 2 to 5 were obtained by the atopic dermatitis animal model prepared in Experimental Method 3 as described above. The experimental substance and the control substance were uniformly applied to the ear auricle using a micropipette tip. From the day of the experimental substance administration (Day 0) to the day of the autopsy (Day 14), they were administered once a day for 2 weeks. Ear thickness was measured for each individual by calipers, and the ear area was photographed. Ear thickness measurement and photographing were performed once a week on the day of starting the experimental substance administration and thereafter.

IgE = experiment: ELISA analysis of serum IgE in atopic dermatitis animal model; settings: day of autopsy (Day 14)
[2] = test system: atopic dermatitis animal model; experiment: Histopathological examination of ear epidermis and dermis (H&E scoring); format: in vivo, NC/Nga mouse; settings: infiltration by inflammatory cells, p<0.05, FIGS. 8 and 9; for epidermis score level compared with group 2: hypertrophy, hyperkeratosis
Description: After the ear auricle of the NC/Nga mouse was shaved with a razor, the epilating agent was applied in an appropriate amount for the complete depilation. After the epilating agent was wiped off, Then, 100 mg of the AD-inducing reagent shown in Table 2 as below was uniformly applied to the ear auricle using a micropipette tip, thereby inducing atopic dermatitis for the first time. After shaving with a razor for necessary, 150 μL of a 4% SDS aqueous solution was uniformly applied to the ear auricle using a micropipette, dried with a cold air using a dryer, and air-dried for about 2 to 3 hours. Then, 100 mg of the same AD-inducing reagent was uniformly applied to the ear auricle using a micropipette tip, thereby inducing atopic dermatitis after 2 times. All treatments were carried out twice a week to be 6 times for a total of 3 weeks, thereby producing atopic dermatitis animal model. The mice of groups 2 to 5 were obtained by the atopic dermatitis animal model prepared in Experimental Method 3 as described above. The experimental substance and the control substance were uniformly applied to the ear auricle using a micropipette tip. From the day of the experimental substance administration (Day 0) to the day of the autopsy (Day 14), they were administered once a day for 2 weeks. On the day of the autopsy, ears were removed for the histopathological examination and fixed in 10% neutral buffered formalin solution. The fixed tissues were subject to the general tissue treatment such as reprofiling, dehydration, paraffin embedding, and dissection, thereby preparing specimens for histopathological examination. Then, hematoxylin and eosin (H & E) and TUNEL assays were performed on histopathologic specimens, and the light microscopy (Olympus BX53, Japan) was used to observe histopathologic changes. In the histopathologic evaluation using hematoxylin and eosin staining slides, in order to compare the degree of the lesion with the induced control group, the most severe lesion was selected, and then the hypertrophy, hyperkeratosis and infiltration by inflammatory cells were evaluated in the epidermis. In the dermis, the infiltration by inflammatory cells was evaluated. Scoring criteria are the same as 0 (no symptoms), 1 (mild), 2 (moderate), and 3 (severe) (Taniguchi Y et al 2003).

[3] = test system: atopic dermatitis animal model; experiment: Visual pathological evaluation (skin clinical index) in atopic dermatitis animal model; format: in vivo, NC/Nga mouse; settings: 14th day after administration; p<0.05; FIG. 6
Description: as §1, with “[…] For each individual, 0 (none), 1 (mild), 2 (moderate) and 3 (severe)” for “From the day of the experimental substance administration (Day 0) to the day of the autopsy (Day 14), they”, “recorded” for “administered once a day”, “erythema/hemorrhage, edema, excoriation/erosion” for “2 weeks. Ear thickness was measured for each individual by calipers,”, “scaling/dryness. […]” for “the ear area was photographed. Ear thickness measurement and photographing were performed once a week on the day of starting the experimental substance administration and thereafter.”

[4] = test system: atopic mouse skin tissues; experiment: Immunohistochemical staining of atopic mouse skin tissue (angiogenic marker, inflammatory cells, keratin); format: in vivo, NC/Nga mouse
Description: (§2) After the ear auricle of the NC/Nga mouse was shaved with a razor, the epilating agent was applied in an appropriate amount for the complete depilation. After the epilating agent was wiped off, Then, 100 mg of the AD-inducing reagent shown in Table 2 as below was uniformly applied to the ear auricle using a micropipette tip, thereby inducing atopic dermatitis for the first time.
(§3) After shaving with a razor for necessary, 150 μL of a 4% SDS aqueous solution was uniformly applied to the ear auricle using a micropipette, dried with a cold air using a dryer, and air-dried for about 2 to 3 hours. Then, 100 mg of the same AD-inducing reagent was uniformly applied to the ear auricle using a micropipette tip, thereby inducing atopic dermatitis after 2 times. All treatments were carried out twice a week to be 6 times for a total of 3 weeks, thereby producing atopic dermatitis animal model.
(§4) The mice of groups 2 to 5 were obtained by the atopic dermatitis animal model prepared in Experimental Method 3 as described above.
(§5) The experimental substance and the control substance were uniformly applied to the ear auricle using a micropipette tip. From the day of the experimental substance administration (Day 0) to the day of the autopsy (Day 14), they were administered once a day for 2 weeks.
Atopy mouse skin tissues were immersed in Xylene three times for 5 minutes, 100% ethanol for 2 minutes, 95% ethanol for 2 minutes, 90% ethanol for 2 minutes, 70% ethanol for 2 minutes and D.W. for 2 minutes to remove paraffin and to perform hydration. After washing with PBS, they were treated with 0.2% Triton X-100 to increase cell permeability. After re-washing with PBS, they were reacted with blocking solution, 3% bovine serum albumin, for 1 hour. For inflammatory cells and keratin staining, they were reacted with F4/80 (sc-377009, Santa Cruz) and cytokeratin (NB600-579, NOVUSBIO) antibodies, respectively, at room temperature for 2 hours. After washing with PBS, they were treated with Texas Red (ab6787, Abcam) secondary antibody and reacted at room temperature for 60 minutes. The mounting solution was dropped on the tissue of the slide. Then, the tissue was covered with a cover slide, and the sample was observed under a fluorescence microscope. For analysis of the degree of angiogenesis, the atopic skin tissue was reacted with FITC-conjugated isolectin B4 (L2895, Sigma), a blood vessel marker at room temperature for 2 hours. The mounting solution was dropped on the tissue of the slide. Then, the tissue was covered with a cover slide, and the sample was observed under a fluorescence microscope
The mouse skin tissues stained with the respective markers were photographed using a fluorescence microscope (DMil, Leica, Germany), and fluorescence intensities were quantitatively analyzed using an ImageJ program (NIH, Bethesda, Md., USA).

ZO-1 (tight junction) = experiment: Recovery of ZO-1 broken by VEGF in HUVEC (confocal immunofluorescence); format: cell-based, Human; settings: peptide pretreatment 30 minutes, VEGF 20 ng/ml 1 hour, FIGS. 18 and 19
Description: (§6) HUVECs were starved with M199 media supplemented with 1% FBS for 4 hours, inoculated on a 24-well plate containing glass at the number of 1×10^5 cells, and cultured for 24 hours to attach the cells to the glass. HUVECs were pretreated with the acetylated tetrapeptide and the non-acetylated tetrapeptide (—Ac) for 30 minutes and treated with VEGF at a concentration of 20 ng/ml for 1 hour. Thereafter, the cells were washed three times with PBS, fixed in 3.7% formaldehyde for 20 minutes, and treated with PBS containing 0.2% Triton X-100 to increase […] permeability. After blocking with 3% BSA for 1 hour, they were reacted with VE-cadherin (adherens junction) and ZO-1 (tight junction) antibodies at room temperature for 2 hours and washed three times with PBS. They were treated with Cy3 secondary antibodies, reacted at room temperature for 1 hour, washed twice with PBS, and stained with DAPI for 10 minutes. The huvec-attached glass was removed and mounted on a sliding glass.

histamine = experiment: ELISA analysis of serum histamine in atopic dermatitis animal model; format: in vivo, NC/Nga mouse; settings: day of autopsy (Day 14)
Description: as §2, §3, §4, §5
On the day of the autopsy, blood samples were collected from the abdominal vein using a syringe. The serum isolated from the blood was analyzed for IgE and histamine using an ELISA kit.

[5] = test system: VE-cadherin (adherens junction); experiment: Recovery of VE-cadherin broken by VEGF in HUVEC (confocal immunofluorescence); format: cell-based, Human; settings: peptide pretreatment 30 minutes, VEGF 20 ng/ml 1 hour, FIGS. 16 and 17
Description: as §6

**Q.** What does the source list for `C[C@]12C=CC(=O)C=C1CC[C@@H]1[C@@H]2[C@@H](O)C[C@@]2(C)[C@H]1CC[C@]2(O)C(=O)CO` [Prednisolone, prednisolone, reference compound]?
**A.** ear thickness compared with induced control group (group 2) [1]: significantly thinner; IgE level compared with group 2 (induced control) (IgE; p<0.001 or p<0.01, FIG. 7): significantly lower; epidermis score level compared with group 2 [2]: significantly lower; dermis score level compared with group 2 [2]: significantly lower; scaling/dryness level compared with group 2 [3]: significantly lower

**Q.** What does the source list for RLYE [Tetrapeptide]?
**A.** ear thickness compared with induced control group (group 2) [1]: significantly thinner; ear thickness compared with normal control group (group 1) ([1]; 14th day after administration, p<0.001): significantly thicker; angiogenesis (Isolectin B4 staining) ([4]; atopic mouse skin tissue, also similar to prednisolone treated group, FIG. 10): lower than that of the inducted control group; inflammatory cell inflow (F4/80 staining) ([4]; atopic mouse skin tissue, also similar to prednisolone treated group, FIG. 11): lower than that of the inducted control group; keratinization and fibrosis (cytokeratin staining) ([4]; atopic mouse skin tissue, also similar to prednisolone treated group, FIG. 12): lower than that of the inducted control group; anti-atopic effect compared with prednisolone ([4]; treatment amount having a molar ratio lower than 1000 times that of prednisolone, FIG. 13): superiority to prednisolone; damage level of ZO-1 caused by VEGF (ZO-1 (tight junction)): recovered to a level similar to that of the control group without VEGF treatment; histamine level compared with prednisolone treated group (histamine; FIG. 7): lower than that of the prednisolone treated group; histamine level compared with group 2 (induced control) (histamine; p<0.001 or p<0.01, FIG. 7): significantly lower; IgE level compared with prednisolone treated group (IgE; FIG. 7): lower than that of the prednisolone treated group; IgE level compared with group 2 (induced control) (IgE; p<0.001 or p<0.01, FIG. 7): significantly lower; IgE level compared with normal control group (IgE; p<0.001 or p<0.01, FIG. 7): significantly higher; damage level of VE-cad caused by VEGF [5]: recovered to a level similar to that of the control group without VEGF treatment; epidermis score level compared with group 2 [2]: significantly lower; dermis score level compared with group 2 [2]: significantly lower

**Q.** Which results are given for “Tetrapeptide (—Ac): non-acetylated tetrapeptides (RLYE)”?
**A.** damage level of ZO-1 caused by VEGF (ZO-1 (tight junction)): recovered to a level similar to that of the control group without VEGF treatment; damage level of VE-cad caused by VEGF [5]: recovered to a level similar to that of the control group without VEGF treatment
